Results reported in publication PMC11477482 (Molecules, 2024).
Entries after “also recorded” stand apart in the source; their conditions may differ.

Legend:
[1] = Stability at different temperatures, pH 5 (UV-vis absorbance); type: physicochemical; settings: for thermostability: pH 5, 4, 25, 40 and 60 °C
Protocol: Each compound solution (100 µM) buffered at pH 5 was prepared in triplicate. The other three samples were stored at 4 °C, 25 °C, 40 °C, and 60 °C, protected from light. Aliquots of 3.00 mL were transferred to quartz cuvettes at specific time points, and their absorbance was measured by UV–vis spectrophotometry. The blank of each pH corresponded to 3.00 mL of respective buffer. Stability was determined in terms of the change in the maximum peak absorbance.

[2] = parameters: method as in earlier work; settings: ref (2) of the supplement; read-out: DPPH scavenging EC50 (literature value); cited from earlier work
[3] = test system: THP-1 cells (CD54 and CD86 expression); assay: Skin sensitization potential, h-CLAT (CD54 and CD86 expression); type: cell-based, human; settings: THP-1, h-CLAT
Description: The cell culture of keratinocytes was detached with EDTA solution 1X (Sigma-Aldrich, St. Louis, MO, USA) when the cells reached 70–80% confluence in cell culture flasks. […] Macrophages were mechanically detached with a cell scraper and subcultured in (1:10) proportion of cellular suspension to a final volume of DMEM. […] Cells were subcultured every 2 or 3 days and maintained in culture for 2–3 months, according to ATCC® instructions.
Following OECD guidelines, researchers utilized the THP-1 human monocyte cell line as a substitute for dendritic cells (DCs) to assess skin sensitization potential. […] The cell pellet was further resuspended in 100 µL of PBS and analyzed by flow cytometry using a BD Accuri™ C6 cytometer (San Jose, CA, USA).
CD86 and CD54 levels were analyzed by flow cytometry using the acquisition channels FL1 and FL4. Mitochondrial O2^− production was measured by flow cytometry using the acquisition channel FL2. The relative fluorescence intensity (RFI) of CD86 and CD54 (THP-1 maturation assay) and MitoSOX (mitochondrial antioxidant activity) in the control and chemical-treated cells, based on the geometric mean fluorescence intensity (MFI), was calculated according to the following equation: RFI=MFI of chemical treated cells−MFI of chemical treated unstained cells/MFI of control treated cells−MFI of control unstained cells ×100

[4] = test system: B16 cells; settings: 4 mM, compared to 3-O-ethyl ascorbic acid, ref [15],[16],[17]; cited from earlier work
[5] = test system: human fibroblasts; settings: ref [15],[16],[17]; cited from earlier work
[6] = Cellular metabolic activity, resazurin reduction assay, HaCaT; type: cell-based, human; settings: human, HaCaT keratinocytes; HaCaT, resazurin, 24 h, concentrations greater than or equal to 500 µM; read-out: cell viability
Protocol: (§1) The human keratinocytes (HaCaT, CLS 300493, Eppelheim, Germany) cell line was cultured with Dulbecco’s Modified Eagle’s Medium (DMEM) (Sigma-Aldrich, St. Louis, MO, USA), supplemented with 10% (v/v) of heat-inactivated fetal bovine serum (FBS), 1% (v/v) antibiotic solution (from a 10,000 U/mL penicillin and 10,000 μg/mL streptomycin stock) (Gibco, Carlsbad, CA, USA), 3.7 g/L sodium bicarbonate, and 1 mM sodium pyruvate (Sigma-Aldrich, St. Louis, MO, USA). The cell culture of keratinocytes was detached with EDTA solution 1X (Sigma-Aldrich, St. Louis, MO, USA) when the cells reached 70–80% confluence in cell culture flasks. The mouse macrophage cell line (RAW 264.7, ATCC TIB-71, Manassas, VA, USA) was cultured in DMEM supplemented with 10% (v/v) non-inactivated FBS, 1% (v/v) antibiotic solution, 1.5 g/L sodium bicarbonate, and 1 mM sodium pyruvate. Macrophages were mechanically detached with a cell scraper and subcultured in (1:10) proportion of cellular suspension to a final volume of DMEM. […] The metabolic activity of human epidermal keratinocytes (HaCaT), murine macrophages (RAW264.7), and human monocytes (THP-1) was assessed using a resazurin reduction assay. […] The absorbance was read at 570 and 620 nm using a SpectraMax Plus 384 absorbance microplate spectrophotometer (Molecular Devices, San Jose, CA, USA). […]

[7] = test system: THP-1 cells; assay: Cellular metabolic activity, resazurin reduction assay, THP-1; type: cell-based, human; settings: THP-1 monocytes, concentrations examined (abstract: up to 500 µM)
Protocol: as §1

[8] = test system: HaCaT cells; assay: Cellular metabolic activity, resazurin reduction assay, HaCaT; type: cell-based, human; settings: HaCaT keratinocytes, concentrations examined (abstract: up to 500 µM)
Protocol: as §1

[9] = test system: RAW264.7 cells; assay: Cellular metabolic activity, resazurin reduction assay, RAW264.7; type: cell-based, mouse; settings: RAW264.7 macrophages, concentrations examined (abstract: up to 500 µM)
Protocol: as §1

Row | Structure (SMILES) | thermostability [1] | absorbance normalized to t = 0 ([1]; pH 5, 60 °C, in 2 h) [%] | absorbance normalized to t = 0 ([1]; pH 5, storage at 25 °C) [%] | EC50 [2] [µM] | skin sensitization potential [3] | lightening effect [4] | collagen production [5] [µg/well] | viability at 24 h [6] [%] | effect on cell viability / metabolic activity [7] | effect on cell viability / metabolic activity [8] | effect on cell viability / metabolic activity [9]
1 | O=C1O[C@H]([C@@H](O)CO)C(O)=C1O [AA, Ascorbic acid] | decomposed with time at all the temperatures tested | < 30 | < 50 | 16.3 ± 0.569 | – | – | – | – | – | – | –
2 | O=C1O[C@H]([C@@H](O)CO)C(O)=C1O[C@H]1O[C@H](CO)[C@@H](O)[C@H](O)[C@H]1O [AAG, 2-O-α-D-glucopyranosyl-L-ascorbic acid] | – | – | – | – | AA, AAG, and AAGS with non-sensitizer profile | better lightening effect | > 12 | > 70 | – | – | –
3 | O=C1OC(C(COS(=O)(=O)O)OS(=O)(=O)O)C(OS(=O)(=O)O)=C1OC1OC(COS(=O)(=O)O)C(OS(=O)(=O)O)C(OS(=O)(=O)O)C1OS(=O)(=O)O [AAGS, 2-O-α-D-glucopyranosyl-L-ascorbic acid persulfate] | highest level of stability among the compounds | – | – | – | non-sensitizing profile; also recorded: AA, AAG, and AAGS with non-sensitizer profile | – | – | – | did not adversely impact cell viability; also recorded: did not affect the metabolic activity | did not adversely impact cell viability; also recorded: did not affect the metabolic activity | did not adversely impact cell viability; also recorded: did not affect the metabolic activity
